Measured values taken from the NIST ThermoML archive (doi:10.1016/j.jct.2014.07.018).
± gives the expanded uncertainty stated by the source.

Test: molar heat capacity at constant pressure
Details: 101.33 kPa, Vacuum adiabatic calorimetry

CCCCn1cc[n+](C)c1.[I-] [1-butyl-3-methylimidazolium iodide]
molar heat capacity at constant pressure (125.6 K, Crystal): 133.5 ± 0.6 J/K/mol | molar heat capacity at constant pressure (126.29 K, Crystal): 133.9 ± 0.6 J/K/mol | molar heat capacity at constant pressure (126.57 K, Glass): 144.1 ± 0.6 J/K/mol | molar heat capacity at constant pressure (127.64 K, Crystal): 134.7 ± 0.6 J/K/mol | molar heat capacity at constant pressure (128.33 K, Crystal): 135.1 ± 0.6 J/K/mol | molar heat capacity at constant pressure (128.55 K, Glass): 145.4 ± 0.6 J/K/mol | molar heat capacity at constant pressure (129.68 K, Crystal): 135.9 ± 0.6 J/K/mol | molar heat capacity at constant pressure (130 K, Crystal): 136.1 ± 0.6 J/K/mol | molar heat capacity at constant pressure (130 K, Glass): 146.4 ± 0.7 J/K/mol | molar heat capacity at constant pressure (130.37 K, Crystal): 136.4 ± 0.6 J/K/mol | molar heat capacity at constant pressure (130.54 K, Glass): 146.7 ± 0.6 J/K/mol | molar heat capacity at constant pressure (131.72 K, Crystal): 137.2 ± 0.6 J/K/mol | molar heat capacity at constant pressure (132.41 K, Crystal): 137.6 ± 0.6 J/K/mol | molar heat capacity at constant pressure (132.53 K, Glass): 148 ± 0.6 J/K/mol | molar heat capacity at constant pressure (133.76 K, Crystal): 138.4 ± 0.6 J/K/mol | molar heat capacity at constant pressure (134.46 K, Crystal): 138.8 ± 0.6 J/K/mol | molar heat capacity at constant pressure (134.52 K, Glass): 149.3 ± 0.6 J/K/mol | molar heat capacity at constant pressure (135.81 K, Crystal): 139.6 ± 0.6 J/K/mol | molar heat capacity at constant pressure (136.51 K, Crystal): 140.1 ± 0.6 J/K/mol | molar heat capacity at constant pressure (136.51 K, Glass): 150.6 ± 0.7 J/K/mol | molar heat capacity at constant pressure (137.87 K, Crystal): 140.8 ± 0.6 J/K/mol | molar heat capacity at constant pressure (138.51 K, Glass): 151.8 ± 0.7 J/K/mol | molar heat capacity at constant pressure (138.56 K, Crystal): 141.3 ± 0.6 J/K/mol | molar heat capacity at constant pressure (139.92 K, Crystal): 142.1 ± 0.6 J/K/mol | molar heat capacity at constant pressure (140 K, Crystal): 142.1 ± 0.6 J/K/mol | molar heat capacity at constant pressure (140 K, Glass): 152.8 ± 0.7 J/K/mol | molar heat capacity at constant pressure (140.51 K, Glass): 153.1 ± 0.7 J/K/mol | molar heat capacity at constant pressure (140.62 K, Crystal): 142.5 ± 0.6 J/K/mol | molar heat capacity at constant pressure (141.98 K, Crystal): 143.3 ± 0.6 J/K/mol | molar heat capacity at constant pressure (142.51 K, Glass): 154.4 ± 0.7 J/K/mol | molar heat capacity at constant pressure (142.68 K, Crystal): 143.7 ± 0.6 J/K/mol | molar heat capacity at constant pressure (144.04 K, Crystal): 144.5 ± 0.6 J/K/mol | molar heat capacity at constant pressure (144.51 K, Glass): 155.7 ± 0.7 J/K/mol | molar heat capacity at constant pressure (144.74 K, Crystal): 144.9 ± 0.6 J/K/mol | molar heat capacity at constant pressure (146.1 K, Crystal): 145.7 ± 0.6 J/K/mol | molar heat capacity at constant pressure (146.51 K, Glass): 157 ± 0.7 J/K/mol | molar heat capacity at constant pressure (146.8 K, Crystal): 146.1 ± 0.6 J/K/mol | molar heat capacity at constant pressure (148.16 K, Crystal): 146.9 ± 0.6 J/K/mol | molar heat capacity at constant pressure (148.52 K, Glass): 158.3 ± 0.7 J/K/mol | molar heat capacity at constant pressure (148.86 K, Crystal): 147.3 ± 0.6 J/K/mol | molar heat capacity at constant pressure (150 K, Crystal): 147.9 ± 0.7 J/K/mol | molar heat capacity at constant pressure (150 K, Glass): 159.3 ± 0.7 J/K/mol | molar heat capacity at constant pressure (150.22 K, Crystal): 148.1 ± 0.6 J/K/mol | molar heat capacity at constant pressure (150.52 K, Glass): 159.6 ± 0.7 J/K/mol | molar heat capacity at constant pressure (150.92 K, Crystal): 148.5 ± 0.6 J/K/mol | molar heat capacity at constant pressure (152.28 K, Crystal): 149.3 ± 0.6 J/K/mol | molar heat capacity at constant pressure (152.53 K, Glass): 160.9 ± 0.7 J/K/mol | molar heat capacity at constant pressure (152.98 K, Crystal): 149.7 ± 0.7 J/K/mol | molar heat capacity at constant pressure (154.35 K, Crystal): 150.5 ± 0.7 J/K/mol | molar heat capacity at constant pressure (154.54 K, Glass): 162.2 ± 0.7 J/K/mol | molar heat capacity at constant pressure (155.05 K, Crystal): 150.8 ± 0.7 J/K/mol | molar heat capacity at constant pressure (156.41 K, Crystal): 151.6 ± 0.7 J/K/mol | molar heat capacity at constant pressure (156.54 K, Glass): 163.5 ± 0.7 J/K/mol | molar heat capacity at constant pressure (157.11 K, Crystal): 152.1 ± 0.7 J/K/mol | molar heat capacity at constant pressure (158.48 K, Crystal): 152.8 ± 0.7 J/K/mol | molar heat capacity at constant pressure (158.55 K, Glass): 164.8 ± 0.7 J/K/mol | molar heat capacity at constant pressure (159.18 K, Crystal): 153.2 ± 0.7 J/K/mol | molar heat capacity at constant pressure (160 K, Crystal): 153.7 ± 0.7 J/K/mol | molar heat capacity at constant pressure (160 K, Glass): 165.7 ± 0.7 J/K/mol | molar heat capacity at constant pressure (160.54 K, Crystal): 154 ± 0.7 J/K/mol | molar heat capacity at constant pressure (160.56 K, Glass): 166.1 ± 0.7 J/K/mol | molar heat capacity at constant pressure (161.24 K, Crystal): 154.4 ± 0.7 J/K/mol | molar heat capacity at constant pressure (162.57 K, Glass): 167.4 ± 0.7 J/K/mol | molar heat capacity at constant pressure (162.61 K, Crystal): 155.2 ± 0.7 J/K/mol | molar heat capacity at constant pressure (163.31 K, Crystal): 155.6 ± 0.7 J/K/mol | molar heat capacity at constant pressure (164.58 K, Glass): 168.7 ± 0.7 J/K/mol | molar heat capacity at constant pressure (164.68 K, Crystal): 156.4 ± 0.7 J/K/mol | molar heat capacity at constant pressure (165.38 K, Crystal): 156.8 ± 0.7 J/K/mol | molar heat capacity at constant pressure (166.59 K, Glass): 170 ± 0.7 J/K/mol | molar heat capacity at constant pressure (166.74 K, Crystal): 157.5 ± 0.7 J/K/mol | molar heat capacity at constant pressure (167.44 K, Crystal): 158 ± 0.7 J/K/mol | molar heat capacity at constant pressure (168.59 K, Glass): 171.4 ± 0.7 J/K/mol
